Assay results from patent US20110200618A1, “ERBB4 INHIBITORS AND USES THEREOF IN TREATMENT OF NEUROPSYCHIATRIC DISORDERS” (priority 2008, published 2011).

Tests used:
Type in all cases: cell-based
[1] = test system: NRG1 induced ERK activation; assay: NRG1 induced ERK activation in human olfactory epithelial (hOE) cultures, western blot; conditions: healthy person, inhibitors 20 min, then 100 ng/ml NRG1 10 min, 10 μM U0126, 10 nM wortmannin, 100 nM K-252, 2.5 μM AG1478, 1 μM AG879
Protocol: Protein extracts were analyzed for the expression of p-ERK and glyeraldehyde 3-dehydrogenase (GAPDH). U, 10 μM of U0126: W, 10 nM of wortmannin: K, 100 nM K-252, 2.5 μM of AG1478 and 1 μM of AG879;
Protein extracts were analyzed for the expression of p-ERK and glyceraldehyde 3-dehydrogenase (GAPDH). (A) A representative western blotting (B) p-ERK intensities were normalized with respect to GAPDH, which were then used to calculate percent inhibition.
As an internal control experiment, the cells were also incubated with inhibitors for ERK, AKT or trkb activation, U0126, wortmannin or K-252 respectively.

[2] = test system: NRG1 induced ERK activation; assay: NRG1 stimulation of post-mortem human prefrontal cortex tissues, ERK activation; conditions: post-mortem PFC of healthy control; 2.5 μM AG1478 pre-incubated 15 min, 100 ng/ml NRG1
Protocol: NRG1 stimulation of human post-mortem PFC. 100 mg of post-mortem brain tissues of a healthy control subject were incubated with or without 100 ng/ml of NRG1 in the presence or absence of 2.5 μM AG1478. Protein extracts were analyzed for p-ERK and ERK;
Protein extracts were analyzed for the expression of ERK, AKT and GSK and their phosphorylated counterparts;
erbB stimulation/inhibition experiment wastested in post-mortem brain tissues. FIG. 2 represents an experiment, in which the PFC of a healthy control subject was stimulated with NRG1 in the presence of AG1478. In this experiment, the tissues were incubated with the inhibitor for 15 min before added with 100 ng/ml of NRG1.
GSK1495829A was tested in post-mortem mouse and human brain tissues. FIG. 4 represents an experiment, in which the PFC tissues of a healthy control subject were pre-incubated with varied concentrations of the inhibitor for 15 min before the ligand stimulation with 100 ng/ml of NRG1. […] One possible explanation could be that the brain tissues are less permeable to the inhibitors than OE culture cells.

activation of ERK = assay: NRG1 stimulation of post-mortem mouse brain tissues after 60 min pre-incubation, ERK activation; conditions: post-mortem mouse brain tissue slices, GSK compound at 10 μM, 100 ng/ml NRG1, vehicle control also failed to respond to NRG1
Protocol: Protein extracts were analyzed for the expression of p-ERK;
To enhance the permeability of the inhibitors, tissue slices were pre-incubated with the inhibitors for 60 min before added with NRG1.

activation of AKT = assay: NRG1 stimulation of post-mortem mouse brain tissues after 60 min pre-incubation, AKT activation; conditions: post-mortem mouse brain tissue slices, GSK compound at 10 μM, 100 ng/ml NRG1

SMILES	NRG1 induced p-ERK with respect to GAPDH [1]	NRG1 induced ERK activation (ratio p-ERK to ERK) [2]	activation of ERK (activation of ERK)	activation of AKT (activation of AKT)
CC(C)(C)c1cc(C=C(C#N)C(N)=S)cc(C(C)(C)C)c1O [AG 879, α-Cyano-(3,5-di-t-butyl-4-hydroxy)thiocinnamide]	attenuated	–	–	–
COc1cc2ncnc(Nc3cccc(Cl)c3)c2cc1OC [AG 1478, 4-(3-Chloroanilino)-6,7-dimethoxyquinazoline]	attenuated	significantly reduced	did not reduce	did not reduce
N#CC(=C(/N)Sc1ccccc1N)/C(C#N)=C(\N)Sc1ccccc1N [U0126]	significantly reduced	–	–	–
